# Measurements taken from paper PMC10135567, “New Indole-3-Propionic Acid and 5-Methoxy-Indole Carboxylic Acid Derived Hydrazone Hybrids as Multifunctional Neuroprotectors” (Antioxidants, 2023).
# Assays:
# [1] = MTT cell viability assay (cytotoxicity), SH-SY5Y; conditions: human, SH-SY5Y neuroblastoma cells
# Description: Neuroblastoma cell line SH-SY5Y (94030304) was acquired from the European Collection of Cell Cultures (ECACC, Salisbury, UK). Cells were cultured in a medium prepared with RPMI basic media supplemented with 10% heat-inactivated FBS (fetal bovine serum), 2 mM L-glutamine, 1% antibiotics (penicillin/streptomycin), and incubated at 37 °C in a humidified atmosphere containing 5% of CO2. The culture’s medium was replaced at a time interval of 2–3 days.
# (§1) Cell viability was assessed via the mitochondrial reductase-dependent reaction of (3-(4,5-dimethylthiazol-2-yl)- 2,5-diphenyl tetrazolium bromide (MTT, cat. no. 475989, Calbiochem, Merck KGaA, Darmstadt, Germany). The SH-SY5Y and bEnd3 cell lines were seeded in 96-well plates at a density of 0.7 × 10^4 (bEnd3) or 2 × 10^4 (SH-SY5Y) cells/well and allowed to adhere for 24 h at 37 °C, 5% CO2. Then, the cells were incubated with the compounds (1–500 μM) for a preset time (24 h). For the solvent, the control cells were treated with DMSO corresponding to the highest concentration of DMSO in the samples (0.5% DMSO) in order to exclude its cytotoxic effect on the cells. For each concentration, a set of at least 6 wells were used. After incubation, the solution from each well was exchanged with fresh culture medium (100 µL/well), containing the MTT reagent (0.5 mg/mL) and incubated for 3 h at 37 °C in a humidified atmosphere and 5% CO2. The obtained formazan crystals were dissolved in 100 µL/well of 5% formic acid in propan-2-ol solution (or DMSO). The absorbance was measured at 570 nm via multiplate reader Tecan Infinite F200 PRO (Tecan Trading AG., Männedorf, Switzerland) or Synergy 2 (BioTek Instruments, Inc., Highland Park, Winooski, VT, USA).
# (§2) Both the SH-SY5Y and bEnd3 cells were treated with the test compounds in a concentration range from 1 to 500 µM for 24 h.
# [2] = test system: isolated rat-brain synaptosomes; experiment: Synaptosomal viability (MTT), substances administered alone; conditions: 100 µM
# Description: Preparation of the synaptosomes was carried out by multiple centrifugations using the Percoll gradient. Homogenization of the brains was performed in 10 volumes of cold buffer 1, which contained 5 mM HEPES and 0.32 M sucrose (pH = 7.4), followed by centrifugation at different speeds. For preparation of the gradient, the synaptosomes were isolated by Percoll reagent. Synaptosomes were resuspended and incubated in buffer 2, which contained 290 mM NaCl, 0.95 mM MgCl2x6H2O, 10 mM KCl, 2.4 mM CaCl2xH2O, 2.1 mM NaH2PO4, 44 mM HEPES, and 13 mM D-glucose. Incubations were performed in a 5% CO2 + 95% O2 atmosphere. The method of Lowry et al., using bovine serum albumin as a standard content, was applied for determination of synaptosomal protein [51].
# Synaptosomal viability was monitored based on a (3-(4,5)-dimethylthiazol-2-yl)-2,5-diphenyl tetrazolium bromide) assay. After incubation with the compounds, synaptosomes were treated with 0.5 mg/mL solution of (3-(4,5)-dimethylthiazol-2-yl)-2,5-diphenyl tetrazolium bromide) for 10 min at […]. Then, the synaptosomes were centrifuged twice at 15,000× g for 1 min. The resulting formazan crystals were dissolved in DMSO (dimethyl sulfoxide), and the extinction was determined by spectrophotometric measurements at 580–660 nm. […]
# [3] = test system: isolated rat-brain synaptosomes; experiment: 6-OHDA-induced neurotoxicity in isolated rat synaptosomes, synaptosomal viability; format: cell-based; conditions: Rattus norvegicus; 10 µM pre-incubation 30 min, then 150 µM 6-OHDA 1 h; read-out: synaptosomal viability (SV) preserved, as compared to 6-OHDA
# Description: (§3) This neurotoxicity model was based on the metabolism and auto-oxidation of 6-hydroxy dopamine responsible for the reactive oxygen species and quinones generation, ultimately leading to neurotoxicity and neurodegeneration. The experiment was performed by pre-incubation of the synaptosomes with 10 µM of the compounds for 30 min, followed by the addition of 150 µM 6-hydroxy dopamine for induction of neurotoxicity. After 1 h, they were centrifuged twice for 1 min at 15,000 × g. After the second wash, the precipitates were resolved with buffer B and glucose.
# [4] = test system: isolated rat-brain synaptosomes; experiment: 6-OHDA-induced neurotoxicity in isolated rat synaptosomes, GSH level; format: cell-based; conditions: 10 µM pre-incubation 30 min, then 150 µM 6-OHDA 1 h
# Description: as §3
# [5] = Fe(II)-induced lipid peroxidation assay (LP assay, TBARS); format: biochemical; conditions: 90 µM, lecithin 1 mg/mL, 0.1 mM FeCl2; lower = stronger antioxidant
# Description: (§4) The lipid peroxidation assay and a modification of the deoxyribose-degradation assay were used. Two types of measurement compositions in phosphate buffer (PB–K2HPO4/KH2PO4, pH 7.4) were prepared for both tests: (i) samples, containing the biologically relevant molecules (lecithin emulsion or deoxyribose), iron, and the tested hydrazones at the concentrations indicated below the figures; and (ii) controls, in which the tested hydrazones were omitted. The data for the sample activity were presented as a percentage of the control measurement.
# The thiobarbituric-acid reactive-substance colorimetric test was performed in a model system of Fe(II)-induced lipid peroxidation as an emulsion prepared from egg yolk phospholipids. Each sample contained 1 mg/mL of lecithin. LP was initiated using 0.1 mM FeCl2. After 30 min incubation at 37 °C, 0.5 mL of 2.8% trichloroacetic acid solution and 0.5 mL of 0.5% thiobarbituric acid solution were added, following a second incubation at 100 °C for 20 min. Centrifugation at 3000 rpm for 20 min at 4 °C was performed, and we determined the absorbance value of the supernatant at 532 nm via Shimadzu UV-1601 UV-VIS spectrophotometer.
# [6] = O-phenanthroline Fe(II) chelation test; format: physicochemical; conditions: 200 µM compound, FeCl2
# Description: The Fe (II)-chelating activity of the tested hydrazones was determined by the O-phenanthroline method. A total of 1 mL sample solutions of 50 mM PB pH 7 contained 0.2 mM O-phenanthroline and 0.05 mM FeCl2 and 0.2 mM hydrazone. In the controls, the tested compounds were omitted. Absorbance was measured at 515 nm via GENESYS 50 UV-VIS spectrophotometer after incubation for 5 min at 37 °C. The data for the sample activity were presented as a percentage of the control measurement. Absorbance spectra of all the samples, the control, and the measurement compositions containing the tested hydrazones and Fe(II) at the concentrations used in the samples were measured.
# To explain the results of both systems of Fe(II)-induced oxidative damage, we studied the potency of the tested compounds to chelate-iron (Fe(II)). This was studied by spectrophotometric determination of free iron (Fe(II)) using the ortho-phenanthroline test, as 1,10-phenantroline reacts rapidly with Fe(II) ions in weakly acidic media, generating an orange–red complex (ferroin) with characteristic absorbance spectra (molar absorptivity 1.10.104 (α = 0.20) at ~max 512 nm and a molar ratio 3:1 (R: Fe(II))). The generated complex was stable, and the bound Fe(II) was resistant to oxidation. Lower absorbance of the reaction mixture indicated higher Fe^2+-chelating activity.
# [7] = Superoxide radical scavenging, xanthine/xanthine oxidase/NBT system; format: biochemical
# Description: The 1 mL cuvette for the control contained 1 mM xanthine, 20 µL xanthine oxidase (100 IU/L), and 0.04 mM NBT [43, 44]. In the sample compositions, the tested hydrazones at different concentrations were added. All measurement compositions were incubated at 37 °C, and the absorbance was determined spectrophotometrically at 560 nm via Shimadzu UV-1601 UV-vis spectrophotometer.
# The potential capability of the investigated compounds to prevent the superoxide-anion radical-induced NBT reduction was investigated spectrophotometrically by xanthine-oxidase assay. The assay was carried out at the final concentration of the tested compounds, at 1, 10, 50, and 100 µM.
# [8] = target: T1, recombinant human MAO-B (hMAO-B) (Homo sapiens, UniProt P27338); experiment: hMAO-B enzyme activity inhibition (Amplex Red fluorimetric assay); format: biochemical; conditions: 1 µM
# T1 sequence (P27338 1-520): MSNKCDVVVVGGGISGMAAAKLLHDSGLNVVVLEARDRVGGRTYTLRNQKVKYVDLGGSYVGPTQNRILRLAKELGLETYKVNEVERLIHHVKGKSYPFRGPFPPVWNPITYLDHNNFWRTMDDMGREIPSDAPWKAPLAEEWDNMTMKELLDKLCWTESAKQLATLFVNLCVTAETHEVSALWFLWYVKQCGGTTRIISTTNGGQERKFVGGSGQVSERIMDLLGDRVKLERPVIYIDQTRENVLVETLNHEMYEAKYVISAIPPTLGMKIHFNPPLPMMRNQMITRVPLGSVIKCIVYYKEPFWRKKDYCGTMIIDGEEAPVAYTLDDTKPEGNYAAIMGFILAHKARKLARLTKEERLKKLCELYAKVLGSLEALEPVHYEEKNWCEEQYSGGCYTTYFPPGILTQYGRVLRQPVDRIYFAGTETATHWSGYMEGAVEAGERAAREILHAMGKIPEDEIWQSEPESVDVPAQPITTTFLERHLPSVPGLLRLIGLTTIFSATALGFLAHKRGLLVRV
# Description: Amplex® UltraRed reagent [48] was used for detection of the hydrogen peroxide and peroxidase activity in biological samples and enzymes. In the presence of peroxidase, a red phosphorescent oxidation product, resorufin, was produced due to the 1:1 stoichiometric reaction of Amplex® Red with hydrogen peroxide. The analysis was conducted spectrophotometrically based on the high extinction coefficient of the color product. Using this method, small amounts of hydrogen peroxide (of the order of 10 pM in a volume of 100 µL) could be detected.
# The following controls were used: pure MAO-B working solution in reaction buffer, MAO-B working solution containing hydrogen peroxide, and pure reaction buffer. The final concentration of the substances was 1 µM. […] At the end of the incubation period, the reaction was started by adding a 50 µL of a mix solution containing solutions of Amplex® Red reagent, horseradish peroxidase (HRP), and tyramine as a substrate for the enzyme in a reaction buffer, to each well on the 96-well plate.
# [9] = MTT cell viability assay (cytotoxicity), bEnd3; format: cell-based, mouse; conditions: mouse, bEnd3 brain endothelial cells, 1–500 µM
# Description: Mouse-brain endothelial cell line bEnd3 [36] (CRL-2299) was purchased from the American Type Culture Collection (ATCC, Manassas, VA, USA). The cells were cultured in DMEM (Dulbeco’s modified essential medium) (cat. no. 30-2002, ATCC, Manassas, VA, USA), supplemented with 10% heat-inactivated FBS (cat. no. F7524, Sigma-Aldrich Co. LLC, St. Louis, MO, USA), 1 mM L-glutamine (cat. no. G7513, Sigma-Aldrich Co. LLC, St. Louis, MO, USA) and 1× Antibiotic-Antimycotic solution (penicillin: streptomycin: amphotericin B (100 U/mL: 0.10 mg/mL: 0.25 µg/mL) (cat. no. A5955, Sigma-Aldrich Co. LLC, St. Louis, MO, USA) at 37 °C in a humidified atmosphere containing 5% CO2. The cells were passaged in 75 cm^2 flasks every 3–5 days via trypsinization (StableCell Trypsin solution, cat. no. T2610, Sigma-Aldrich Co. LLC, St. Louis, MO, USA).
# as §1, §2
# [10] = Fe(II)-induced deoxyribose degradation assay; format: biochemical; conditions: 80 µM, 2-deoxyribose 0.5 mM, 0.1 mM FeCl2; lower = stronger antioxidant
# Description: as §4
# The deoxyribose (0.5 mM) damage was induced by adding FeCl2 (0.1 mM). The measurement compositions were incubated at 37 °C for 30 min. The next step comprised adding 0.5 mL of 2.8% trichloroacetic acid and 0.5 mL of thiobarbituric acid. Then, the samples were heated in boiling water for 20 min, and their absorbance was estimated at 532 nm (characteristic band for the generated chromophore) via Shimadzu UV-1601 UV-vis spectrophotometer.
# [11] = Stability by UV-vis measurements at different pH; format: physicochemical; conditions: 50 µM, pH 2, 4.5, 7.4 and 8.4, after 1, 2, 3 and 24 h
# Description: The stability of the compounds was also considered a potential issue. Therefore, selected compounds (3a, 3d, 5d, and 5e at a concentration of 50 µM) were studied by UV-vis measurements under different pH conditions, including pH 2, 4.5, 7.4, and 8.4, to represent different physiological (gastric, intestinal, etc.) conditions.
# red blood cells = experiment: Red blood cell hemolysis assay; format: cell-based, rat; conditions: positive control, 20% Triton X-100, 1 h, 37 °C
# Description: The potential of the test compounds to induce hemolysis was evaluated following the protocol described by Evans et al.. The blood was collected from the heart of male Wister rats. The red blood cells were separated from the blood by repeated centrifugation in 0.9% NaCl buffer and were resuspended in phosphate-buffered saline (PBS, pH 7.4). The test compounds in concentrations 10, 100, and 200 µM, a negative control (distilled water), and a positive control (20% Triton X-100) were pipetted into 96-well plates. Then, the erythrocyte suspension in PBS was added, and the plates were incubated for 1 h at 37 °C. After centrifugation (5 min at 500× g), the supernatant was transferred to new 96-well plates in order to measure hemoglobin absorbance at 430 nm on a Synergy 2 plate-reader (BioTek Instruments, Inc., Highland Park, Winooski, VT, USA). The obtained results were presented as a percentage of hemolysis relative to the hemoglobin absorbance values in the positive controls. Hemoglobin absorbance of negative controls was accepted as zero hemolysis. […]
# Hemolysis assay, using red blood cells, is an essential part of the in vitro biocompatibility testing of new drug substances; and it was used as a screening method for the evaluation of potential in vivo toxicity. The release of hemoglobin was a definite sign of the cell lysis of the erythrocytes and could be measured spectrophotometrically. […]
compound,measurement,setting,value
"O=C(O)CCc1c[nH]c2ccccc12 [IPA, Indole-3-propionic acid]",IC50 at 24 h,[1],> 500 µM
same,reduction of synaptosomal viability (SV) vs. non-treated synaptosomes,[2],47%
same,viability at 10 µM,[3],56%
same,"GSH level preserved, as compared to 6-OHDA",[4],50%
same,absorbance ratio sample/control (lipid peroxidation),[5],"further amelioration of the antioxidant properties was not observed, as compared to melatonin"
same,absorbance at 515 nm compared to the controls (Fe(II) chelation),[6],"statistically identical absorbance values at 515 nm, as compared to the controls"
same,"absorbance ratio (NBT reduction, % of control)","[7]; 1, 10, 50 and 100 µM",did not influence the estimated absorbance ratio at any of the tested concentrations
same,reduction of hMAO-B enzyme activity vs. pure hMAO-B,[8],25%
"O=C(CCc1c[nH]c2ccccc12)NN=Cc1cccc(O)c1O [Compound 3a, N′-(2,3-Dihydroxybenzylidene)-3-(1H-indol-3-yl)propanehydrazide]",IC50 at 24 h,[1],120 µM
same,IC50 at 24 h,[9],356 µM
same,viability at 10 µM,[3],44%
same,absorbance ratio sample/control (lipid peroxidation),[5],around 30%
same,"absorbance ratio, % of the controls (deoxyribose degradation)",[10],around 35%
same,absorbance at 515 nm compared to the controls (Fe(II) chelation),[6],"identical absorbance values, as compared to the controls"
same,decrease of NBT reduction as compared to the controls,[7]; 100 µM (highest tested concentration),less than 15%
same,stability (UV-vis spectra over time),[11],stable over time
same,melting point,,204 to 205 °C
Triton X-100,hemolysis,red blood cells,100%
